Holding throughout (assay type): cell-based
Assay [1] concerns human breast cancer cell line T-47D. As to the kind of experiment: Inhibition of cell proliferation (GI50), T47D. To be noted: Homo sapiens; T47D cells, 48 h, CellTiter-Glo. In short, it runs like this:
(§1)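 Growth inhibition is determined as the compound concentration halving proliferation relative to a time-zero (0.5 h) luminescence baseline and drug-free maximum. Cells (4.4×10^4 cells/mL) are treated 48 h at 37 °C over a 1 nM–10 μM final range, and ATP content is measured with CellTiter-Glo.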
In general terms: ATP-based viability assays read luminescence as a measure of living cells.

For assay [2], the system named is human leukemia cell line K562. As to the kind of experiment: Inhibition of cell proliferation (GI50), K562. Conditions: Homo sapiens; K562 cells, 48 h, CellTiter-Glo. In outline: as §1
Assay [3] deals with human Burkitt's lymphoma cell line Namalwa. As to the kind of experiment: Inhibition of cell proliferation (GI50), Namalwa. Conditions: Homo sapiens, Burkitts lymphoma cell; Namalwa cells, 48 h, CellTiter-Glo. In short, it runs like this: as §1
For assay [4], the system named is human B cell lymphoblastoid cell line Ramos. Description: Inhibition of cell proliferation (GI50), Ramos. To be noted: Homo sapiens; Ramos cells, 48 h, CellTiter-Glo. In short, it runs like this: as §1
In assay [5] the test system is human cancer cell line H1299. As to the kind of experiment: Caspase cascade activation (EC50), H1299. Conditions: NCI-H1299, H1299 cells, read-out: caspase potency (EC50) H1299. In short, it runs like this: (§2)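 Fluorogenic DEVD-R110 cleavage at 485/530 nm gives the read-out, taken 3 h after substrate addition and corrected by the control's T=0 background. Compound-treated over control net RFU ratio was fitted sigmoidally for EC50. Cells had been treated 48 h at 0.016 to 10 μM final.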

For assay [6], the system named is human B cell lymphoblastoid cell line Ramos. As to the kind of experiment: Caspase cascade activation (EC50), Ramos. Conditions: Homo sapiens, RAMOS cells, read-out: caspase potency (EC50) RAMOS. In outline: as §2
For assay [7], the system named is human lymphoma cell line Raji. Description: Caspase cascade activation (EC50), Raji. Conditions: Homo sapiens, RAJI cells, read-out: caspase potency (EC50) RAJI. In outline: as §2
In assay [8] the test system is human lymphoma cell line Raji. As to the kind of experiment: Inhibition of cell proliferation (GI50), Raji. To be noted: Homo sapiens; Raji cells, 48 h, CellTiter-Glo. In short, it runs like this: as §1
Assay [9] concerns human Burkitt's lymphoma cell line Namalwa. As to the kind of experiment: Caspase cascade activation (EC50), Namalwa. Conditions: Homo sapiens, Burkitts lymphoma cell; Namalwa cells; caspase cascade activation; read-out: caspase potency (EC50) Namalwa. In short, it runs like this: as §2
In assay [10] the test system is human colon carcinoma cell line HCT116. As to the kind of experiment: Inhibition of cell proliferation (GI50), HCT116. To be noted: Homo sapiens; HCT 116 cells, 48 h, CellTiter-Glo. In short, it runs like this:
as §1

For assay [11] the test system is unchanged. As to the kind of experiment: Caspase cascade activation (EC50), HCT116. Conditions: Homo sapiens, HCT-116; HCT116 cells; caspase cascade activation; read-out: caspase potency (EC50) HCT116. In short, it runs like this:
as §2

The subject of assay [12] is multi-drug resistant (MDR) murine leukemia cell line P388/ADR. As to the kind of experiment: Inhibition of cell proliferation (GI50), P388/ADR. Conditions: Mus musculus; P388/ADR multi-drug resistant cells. The protocol:
(§3) Human breast cancer cell lines T-47D, human hepatocellular carcinoma cell line SNU398, human colon carcinoma cell line HCT116, human lung cancer cell line H1299, human leukemia cell line K562, human lymphoma cell line Raji, human B cell lymphoblastoid cell line Ramos, and human Burkitt's lymphoma cell line Namalwa were grown and harvested as in Example 100. An aliquot of […] of cells (4.4×10^4 cells/mL) was added to a well of a 96-well microtiter plate containing 5 μL of a 10% DMSO in RPMI-1640 media solution containing 10 nM to 100 μM of 3-(2-chlorophenyl)-6-(3,4-methylenedioxyphenyl)-7H-[1,2,4]triazolo[3,4-b][1,3,4]thiadiazine (1 nM to 10 μM final). An aliquot of 45 μL of cells was added to a well of a 96-well microtiter plate containing 5 μL of a 10% DMSO in RPMI-1640 media solution without compound as the control sample for maximal cell proliferation (LMax). The samples were mixed by agitation and then incubated at 37° C. for 48 h in a 5% CO2-95% humidity incubator. After incubation, the samples were removed from the incubator and 25 μL of CellTiter-Glo™ reagent (Promega) was added. The samples were mixed by agitation and incubated at room temperature for 10-15 min. Plates were then read using a luminescent plate reader (Model SPECTRAfluor Plus, Tecan) to give Ltest values.
(§4) The samples were mixed by agitation and then incubated at 37° C. for 0.5 h in a 5% CO2-95% humidity incubator. After incubation, the samples were removed from the incubator and 25 μL of CellTiter-Glo™ reagent (Promega) was added. The samples were mixed by agitation and incubated at […] 10-15 min at room temperature in a 5% CO2-95% humidity incubator. Fluorescence was read as above, (LStart) defining luminescence for initial cell number used as baseline in GI50 determinations.
(§5) Calculation: GI50 (dose for 50% inhibition of cell proliferation) is the concentration where [(Ltest−LStart)/(LMax−LStart)]=0.5.
(§6) Several compounds were tested in human sarcoma cell line MES-SA and multi-drug resistant (MDR) human sarcoma cell line MES-SA/ADR, murine leukemia cell line P388 and multi-drug resistant (MDR) murine leukemia cell line P388/ADR, and the data are summarized in Table III.

The test system of assay [13] is multi-drug resistant (MDR) human sarcoma cell line MES-SA/ADR. As to the kind of experiment: Inhibition of cell proliferation (GI50), MES-SA/ADR. Conditions: MES-SA/ADR multi-drug resistant cells. The protocol: as §3, §4, §5, §6
Assay [14] concerns human sarcoma cell line MES-SA. Description: Inhibition of cell proliferation (GI50), MES-SA. Conditions: MES-SA cells. The protocol: as §3, §4, §5, §6
For assay [15], the system named is human breast cancer cell line T-47D. As to the kind of experiment: Caspase cascade activation (EC50), T-47D. Conditions: Homo sapiens; T47D cells; caspase cascade activation; read-out: caspase potency (EC50) T47D. In short, it runs like this:
as §2

In assay [16] the test system is murine leukemia cell line P388. Description: Inhibition of cell proliferation (GI50), P388. To be noted: Mus musculus; P388 cells. The protocol:
as §3, §4, §5, §6

Assay [17] concerns human hepatocellular carcinoma cell line SNU398. As to the kind of experiment: Caspase cascade activation (EC50), SNU398. Conditions: Homo sapiens, SNU-398; SNU398 cells; caspase cascade activation; read-out: caspase potency (EC50) SNU398. In outline: as §2
For assay [18] the test system is unchanged. Description: Inhibition of cell proliferation (GI50), SNU398. To be noted: Homo sapiens; SNU 398 cells, 48 h, CellTiter-Glo. In short, it runs like this: as §1
The test system of assay [19] is human lung cancer cell line H1299. Description: Inhibition of cell proliferation (GI50), H1299. To be noted: NCI-H1299, H1299 cells, 48 h, CellTiter-Glo. In outline: as §1

For orientation: GI50 means the concentration that inhibits growth by half. In general, EC50 refers to the concentration giving half of the maximal effect. Take `COc1ccc(C2=Nn3c(nnc3-c3cccc(OC)c3)SC2)cc1` [Example X, 3-(3-methoxyphenyl)-6-(4-methoxyphenyl)-7H-[1,2,4]triazolo[3,4-b][1,3,4]thiadiazine]: the GI50 in [1] came to 400 nM; in [2], 32 nM; in [3] it was 119 nM; in [4] it was 14 nM; in [8], 62 nM; in assay [10], 157 nM. Further, the concentration for 50% growth inhibition (GI50) was found to be 77 nM in [12]; 196 nM in [13]; 418 nM in assay [14]; 57 nM in assay [16]; 55 nM in assay [18]. The EC50 was found to be 0.68 µM in assay [5]; 0.067 µM in assay [6]; 0.083 µM in assay [7]; 0.066 µM in assay [9]; 0.119 µM in assay [11]; 0.523 µM in assay [15]. Besides, in assay [17], the EC50 was 0.067 µM.
As to `COc1cc(-c2nnc3n2N=C(c2ccc4c(c2)OCO4)CS3)cc(OC)c1OC` [Example M1, 3-(3,4,5-Trimethoxyphenyl)-6-(3,4-methylenedioxyphenyl)-7H-[1,2,4]triazolo[3,4-b][1,3,4]thiadiazine], the GI50 in assay [1] was determined as 22 nM; in assay [2], 18 nM; in assay [3] it was 13 nM; in [4], 16 nM; in [8] it was 41 nM; in assay [10], 25 nM. The GI50 was found to be 10 nM in [12]; 25 nM in assay [13]; 17 nM in [14]; 7 nM in assay [16]; 166 nM in assay [19]; 12 nM in assay [18]. The EC50 in [5] was determined as 0.068 µM; in assay [6], 0.013 µM; in [7] it was 0.019 µM; in assay [9], 0.031 µM; in assay [11], 0.04 µM; in [15], 0.061 µM. Also, the EC50 in assay [17] came out at 0.028 µM.

The values above are taken from patent publication US20080045514A1 (Cytovia, Inc., priority 2006, published 2008).
